Source: patent US20090312380A1, “NOVEL COMPOSITIONS AND METHODS” (priority 2006, published 2009)

What was measured:
Format in all cases: physicochemical
[1] = Particle size profile of irbesartan samples; details: for D (v, 0.1) particle size: 10 % of particles smaller; for D (v, 0.5) particle size: 50 % of particles smaller; for D (v, 0.9) particle size: 90 % of particles smaller
Procedure: The particle size profile of samples A-D of irbesartan were tested (see Table 1). It can be seen that across the range the particle sizes were very similar. Thus any difference in dissolution kinetics of samples from the relevant batch cannot be attributed to particle size. The D values represent particle size medians from the detected particle size distribution curves. D(v, x) means that 100x % of particles are smaller than the corresponding D value, and 100-100x % of particles are larger. The samples were also subjected to the Brunauer-Emmett-Teller (BET)-nitrogen adsorption analysis to determine the total surface area of the samples as follows: […]

[2] = BET nitrogen adsorption analysis, total specific surface area; details: for Specific Surface Area (nitrogen): BET nitrogen adsorption model, 77.3K
Description: The D values represent particle size medians from the detected particle size distribution curves. D(v, x) means that 100x % of particles are smaller than the corresponding D value, and 100-100x % of particles are larger. The samples were also subjected to the Brunauer-Emmett-Teller (BET)-nitrogen adsorption analysis to determine the total surface area of the samples as follows:
Approximately 0.2-0.5 g of material (accurately weighed) was loaded into a surface area analyser glass tube fitted with a glass rod in order to minimise the overall free space. The sample was then outgased under vacuum at 30° C. for several hours. Upon completion of the outgas step, the sample tube was removed from the analyser and backfilled with helium to avoid refilling with air from the surrounding environment. The sample tube was reweighed in order to calculate the amount of dry sample used during the analysis step. The analyser tube was then loaded into the surface area analyser, and free space analysis was then conducted in order to account for the free volume in the tube and thus accurately measure the quantity of gas adsorbed directly on the powder surface. Nitrogen gas adsorption measurement was executed in a liquid nitrogen filled dewar at 77.3K. BET multipoint surface area determination was performed in the partial pressure range p/po=0.1-0.3 with 5 data points. Specific surface area calculation was performed by linear regression analysis of data according to the BET equation.

[3] = Water surface area from GVS data, BET model; details: for Water Surface Area (WSA): BET adsorption model, GVS adsorption runs; for surface hydrophilicity group predicted from the WSA data: WSA data of Table 6 (ESW and BET); for number of hydrophilic domains: from ESW and BET water surface areas and GVS results; for water surface area (ranking): Table 6, compared to samples B or C; for WSA compared with SSA: water surface area versus specific surface area (nitrogen)
Description: The multilayer sorption model according to Brunauer, Emmet and Teller Journal of the American Chemical Society, vol. 60, pp. 309, 1938) is described as follows:
with: n=number of moles adsorbed at p/p, (=RH/100) • nmono=apparent number of moles adsorbed in monolayer • p/ps=gas partial pressure (=RH/100 in the GVS experiments) • C=BET constant (measure for the strength of the sorption interaction)
From the sorption kinetics, the equilibrium weight changes at the end of each RH stage are extracted to compile xy-data pairs (RH vs. adsorbed amount).
From this, a plot of [p/ps]/[n(1−p/ps)] versus p/ps should give a linear correlation with intercept b=1/[C(nmono)] and slope m=b(C−1).
Evaluation is done by using 5-7 data points (RH vs. adsorbed amount) in the RH range 5-30% RH, which are then used for linear regression to obtain the intercept b and slope m (as explained above). The data is considered acceptable, if the correlation coefficient (r^2) of the linear regression is >0.95, although a correlation coefficient of ≧0.99 should be obtainable for most data sets. From slope and intercept, one can calculate the BET constant C and apparent monolayer amount nmono.
(§1) The calculated monolayer coverage nmono obtained from the application of the gas sorption models to GVS data can be re-calculated to water surface area Awater, taking into account the mean cross sectional area aH2O occupied by one water molecule upon adsorption:
(§2) with: Awater=water surface area [m^2/g] • aH2O mean cross sectional area of one water molecule adsorbed 10^−19 m^2/molecule • nmono=apparent amount adsorbed in the monolayer [mol] • NL=Lochschmidt number=6×10^23 molecules/mol • mdry (sample)=dry mass of sample [g]
The determination of the BET water surface area is illustrated for sample A as follows. From the relative humidity data and the mass difference, p/ps and [p/ps]/[n(1−p/ps)] were calculated to give the values shown in Table 4.
A plot of p/ps versus [p/ps]/[n(1−p/ps)] was then generated (see FIG. 2) allowing the slope (m=26.726) and the intercept (b=3.8219) to be calculated. Using the equations b=1/[C(nmono)] and m=b(C−1), the apparent monolayer amount, n^mono, was calculated to equate to 0.0327 mg. This in turn led to a WSA of 5.9 m^2/g, using equation (A4) above, wherein mdry=18.57 mg.

[4] = Water surface area from GVS data, Excess Surface Work (ESW) model; details: for Water Surface Area (WSA): ESW adsorption model, GVS adsorption runs
Procedure: The xy-data pairs used for the sorption isotherms (mRH, RH-levels) can also be used for a different approach to describe the sorption isotherm. Here, the change in chemical potential Δμ for the sorption process at each relative humidity (and at temperature T) is calculated:
with: R=Universal Gas Constant • T=Temperature • p=water partial pressure at humidity RH and temperature T • ps=water vapour saturation pressure at temperature T
Based on the change in chemical potential Δμ, an energetic term φ can be calculated for each relative humidity, termed excess surface work (ESW) according to J. Adolphs and M. J. Setzer, Journal of Colloid and Interface Science, vol. 180, pp. 70-76, 1996:
with: Φ=excess surface work • Δμ=change in chemical potential • nads=number of moles of water adsorbed in equilibrium at humidity RH
A plot of Φ/RT vs. nads can then be generated, to allow the value of nads at the minimum value of Φ/RT to be deduced. This value of nads corresponds to nmono.
as §1, §2
Likewise, the determination of the ESW water surface area is illustrated for sample A as follows.
A plot of Φ/RT versus the change in mass for sample A was then generated (see FIG. 3). From this, it could be deduced that the minimum value of Φ/RT corresponded to a change in mass of 0.0369 mg, the apparent monolayer amount. This is turn equated to a WSA of 6.65 m^2/g, using equation (A4) above, wherein mdry=18.57 mg.

D (v, 0.1) particle size [1] [μm]	D (v, 0.5) particle size [1] [μm]	D (v, 0.9) particle size [1] [μm]	specific surface area (ranking among samples A-D) ([2]; BET nitrogen adsorption)	Specific Surface Area (nitrogen) [2] [m^2/g]	Water Surface Area (WSA) [3] [m^2/g]	surface hydrophilicity group predicted from the WSA data [3]	Water Surface Area (WSA) [4] [m^2/g]	water surface area (ranking) [3]	WSA compared with SSA [3]	Water Surface Area (WSA) ([3]; listed as sample A) [m^2/g]	apparent monolayer amount nmono ([3]; BET model, mdry=18.57 mg) [mg]	Water Surface Area (WSA) ([4]; listed as sample A) [m^2/g]	apparent monolayer amount (change in mass at minimum of Φ/RT) ([4]; ESW model, mdry=18.57 mg) [mg]	Compound	number of hydrophilic domains [3]
1	3	17	greatest specific surface area	6.16	3.2	relatively hydrophobic	3.0							CCCCC1=NC2(CCCC2)C(=O)N1Cc1ccc(-c2ccccc2-c2nnn[nH]2)cc1 [Sample B, irbesartan]	approximately a similar number of hydrophilic domains as each other
1	3	7		4.29	6.5	relatively hydrophilic	6.5	largest water surface areas	greater than the SSA					CCCCC1=NC2(CCCC2)C(=O)N1Cc1ccc(-c2ccccc2-c2nnn[nH]2)cc1 [Sample D, irbesartan]	approximately twice the number of hydrophilic domains
1	3	12		5.17	5.9	relatively hydrophilic	6.7	largest water surface areas	greater than the SSA	5.9	0.0327	6.65	0.0369	CCCCC1=NC2(CCCC2)C(=O)N1Cc1ccc(-c2ccccc2-c2nnn[nH]2)cc1 [Sample A, irbesartan]	approximately twice the number of hydrophilic domains
1	5	13		3.16	3.6	relatively hydrophobic	4.3		greater than the SSA					CCCCC1=NC2(CCCC2)C(=O)N1Cc1ccc(-c2ccccc2-c2nnn[nH]2)cc1 [Sample C, irbesartan]	approximately a similar number of hydrophilic domains as each other
